The structures appear in SMILES notation. Where two headings read alike, the source gives them in different places. Where a SMILES comes first, the peptide text is derived from it. [ ]: non-standard residue; d: D form. The star is where a group is joined. Palmitoyl = CCCCCCCCCCCCCCCC(=O)*; Aib = CC(C)(N)C(=O)O

Series [1] can be described thus: Histimine (% vs. 48/40).
The target of series [2] is T1, APJ receptor (Homo sapiens, UniProt P35414).
T1 construct: expressed in transfected cells; host or cells: Human TRex cells (doxycycline-inducible)
T1 sequence (P35414 1-380): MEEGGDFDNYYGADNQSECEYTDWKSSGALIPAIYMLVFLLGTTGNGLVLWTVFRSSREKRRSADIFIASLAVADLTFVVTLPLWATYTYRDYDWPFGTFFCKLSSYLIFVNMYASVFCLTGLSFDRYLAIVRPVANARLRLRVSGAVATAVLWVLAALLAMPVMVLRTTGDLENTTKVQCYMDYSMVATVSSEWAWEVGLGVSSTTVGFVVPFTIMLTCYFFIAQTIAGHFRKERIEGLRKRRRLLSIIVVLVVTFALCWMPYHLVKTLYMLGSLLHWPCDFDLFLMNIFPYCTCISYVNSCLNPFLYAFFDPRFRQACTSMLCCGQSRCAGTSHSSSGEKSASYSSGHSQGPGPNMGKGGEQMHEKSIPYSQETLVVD
As to the kind of experiment: HTRF cAMP assay, inhibition of NKH477 stimulated cAMP in Human TRex cells expressing APJ upon doxycycline induction (APJ-hTREX). The format is cell-based. Conditions: for Ranking: class combining EC50 and % histamine; for percent intrinsic activity at 0.3 µM: read-out: % IA (@ 300 nM). In short, it runs like this: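 Cells stimulated with NKH477 and cAMP measured by HTRF competitive immunoassay (cryptate anti-cAMP antibody, d2-labeled cAMP). APJ-hTREX cells induced with […] doxycycline and seeded overnight at 40 k/well.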

[3] abbreviates: inhibition of NKH477 stimulated cAMP, APJ-hTREX cells, read-out: APJ-hTREX EC50.

Broadly, the EC50 is the concentration that produces a half-maximal response. For `CCCCCCCCCCCCCCCC(=O)N[C@H](C(=O)NC(C)(C)C(=O)N[C@@H](Cc1ccccc1)C(=O)N[C@@H](CCCNC(=N)N)C(=O)N[C@@H](CO)C(=O)N[C@@H](CO)C(=O)N[C@@H](CCC(=O)O)C(=O)N[C@H](CCCCN)C(=O)N[C@@H](CCCNC(=N)N)C(=O)N[C@@H](CCCNC(=N)N)C(=O)N[C@@H](CO)C(=O)N[C@@H](C)C(=O)N[C@@H](CC(=O)O)C(=O)N[C@H](C(=O)N[C@@H](Cc1ccccc1)C(=O)N[C@H](C(N)=O)[C@@H](C)CC)[C@@H](C)CC)[C@@H](C)O` [Compound 57] (Palmitoyl-T[Aib]FRSSE[dK]RRSADIFI-NH2; C-terminus assumed), the “Histimine (% vs. 48/40)” value in series [1] came to 39%. Moreover, in series [2], the EC50 was found to be 68 nM; the Ranking entry was “*** (EC50<100 nM and % histamine>35%)”; the percent intrinsic activity at 0.3 µM is 77%.

For the compound `CCCCCCCCCCCCCCCC(=O)N[C@H](C(=O)N[C@H](C(=O)N[C@@H](Cc1ccccc1)C(=O)N[C@@H](CCCNC(=N)N)C(=O)N[C@@H](CO)C(=O)N[C@@H](CO)C(=O)N[C@@H](CCC(=O)O)C(=O)N[C@H](CCCCN)C(=O)N[C@@H](CCCNC(=N)N)C(=O)N[C@@H](CCCNC(=N)N)C(=O)N[C@@H](CO)C(=O)N[C@@H](C)C(=O)N[C@@H](CC(=O)O)C(=O)N[C@H](C(=O)N[C@@H](Cc1ccccc1)C(=O)N[C@@H](Cc1ccccc1)C(N)=O)[C@@H](C)CC)C(C)C)[C@@H](C)O` [Compound 6] (Palmitoyl-TVFRSSE[dK]RRSADIFF-NH2; C-terminus assumed), in series [1], the “Histimine (% vs. 48/40)” value is reported as 70%. Besides, in series [2], the Ranking result was “*** (EC50<100 nM and % histamine>35%)”; the percent intrinsic activity at 0.3 µM turned out to be 76%. Moreover, the EC50 in series [2] (setting [3]) was determined as 49.2 nM.

With `CCCCCCCCCCCCCCCC(=O)N[C@H](C(=O)N[C@H](C(=O)N[C@@H](Cc1ccccc1)C(=O)N[C@@H](CCCNC(=N)N)C(=O)N[C@@H](CO)C(=O)N[C@@H](CO)C(=O)N[C@@H](CCC(=O)O)C(=O)N[C@H](CCCCN)C(=O)N[C@@H](CCCNC(=N)N)C(=O)N[C@@H](CCCNC(=N)N)C(=O)N[C@@H](CO)C(=O)N[C@@H](CC(=O)O)C(=O)N[C@@H](CC(=O)O)C(=O)N[C@H](C(=O)N[C@@H](Cc1ccccc1)C(=O)N[C@H](C(N)=O)[C@@H](C)CC)[C@@H](C)CC)C(C)C)[C@@H](C)O` [Compound 39] (Palmitoyl-TVFRSSE[dK]RRSDDIFI-NH2), the “Histimine (% vs. 48/40)” value in series [1] is listed as 8%. Besides, the percent intrinsic activity at 0.3 µM in series [2] came out at 27%.

In the case of `CCCCCCCCCCCCCCCC(=O)N[C@H](C(=O)N[C@H](C(=O)N[C@@H](Cc1ccccc1)C(=O)N[C@@H](CCCNC(=N)N)C(=O)N[C@@H](CO)C(=O)N[C@@H](Cc1c[nH]cn1)C(=O)N[C@@H](CCC(=O)O)C(=O)N[C@H](CCCCN)C(=O)N[C@@H](CCCNC(=N)N)C(=O)N[C@@H](CCCNC(=N)N)C(=O)N[C@@H](CO)C(=O)N[C@@H](C)C(=O)N[C@@H](CC(=O)O)C(=O)N[C@H](C(=O)N[C@@H](Cc1ccccc1)C(=O)N[C@H](C(N)=O)[C@@H](C)CC)[C@@H](C)CC)C(C)C)[C@@H](C)O` [Compound 11] (Palmitoyl-TVFRSHE[dK]RRSADIFI-NH2; C-terminus assumed), the “Histimine (% vs. 48/40)” value in series [1] worked out at 38%. For the same compound, in series [2], the EC50 was 65.1 nM; the Ranking entry is “*** (EC50<100 nM and % histamine>35%)”; the percent intrinsic activity at 0.3 µM worked out at 68%.

As for `CCCCCCCCCCCCCCCC(=O)N[C@H](C(=O)N[C@H](C(=O)N[C@@H](Cc1ccccc1)C(=O)N[C@@H](CCCNC(=N)N)C(=O)N[C@@H](CO)C(=O)N[C@@H](CO)C(=O)N[C@@H](CCC(=O)O)C(=O)N[C@H](CCCCN)C(=O)N[C@@H](CCCNC(=N)N)C(=O)N[C@@H](CCCNC(=N)N)C(=O)NCC(=O)N[C@@H](C)C(=O)N[C@@H](CC(=O)O)C(=O)N[C@H](C(=O)N[C@@H](Cc1ccccc1)C(=O)N[C@H](C(N)=O)[C@@H](C)CC)[C@@H](C)CC)C(C)C)[C@@H](C)O` [Compound 77] (Palmitoyl-TVFRSSE[dK]RRGADIFI-NH2), the “Histimine (% vs. 48/40)” value in series [1] was 53%. Besides, in series [2], the percent intrinsic activity at 0.3 µM was determined as 64%.

Turning to `CCCCCCCCCCCCCCCC(=O)N[C@H](C(=O)N[C@H](C(=O)N[C@@H](Cc1ccccc1)C(=O)N[C@@H](CCCNC(=N)N)C(=O)N[C@@H](CO)C(=O)N[C@@H](CO)C(=O)N[C@@H](CCC(=O)O)C(=O)N[C@H](CCCCN)C(=O)N[C@@H](CCCNC(=N)N)C(=O)N[C@@H](CCC(N)=O)C(=O)N[C@@H](CO)C(=O)N[C@@H](C)C(=O)N[C@@H](CC(=O)O)C(=O)N[C@H](C(=O)N[C@@H](Cc1ccccc1)C(=O)N[C@H](C(N)=O)[C@@H](C)CC)[C@@H](C)CC)C(C)C)[C@@H](C)O` [Compound 27] (Palmitoyl-TVFRSSE[dK]RQSADIFI-NH2), in series [1], the “Histimine (% vs. 48/40)” value was 4%. The percent intrinsic activity at 0.3 µM in series [2] amounted to 7%.

Consider `CCCCCCCCCCCCCCCC(=O)N[C@H](C(=O)N[C@H](C(=O)N[C@@H](Cc1ccccc1)C(=O)N[C@@H](CCCNC(=N)N)C(=O)N[C@@H](CO)C(=O)N[C@@H](CO)C(=O)N[C@@H](CCC(=O)O)C(=O)N[C@H](CCCCN)C(=O)N[C@@H](CCCNC(=N)N)C(=O)NC(C)(C)C(=O)N[C@@H](CO)C(=O)N[C@@H](C)C(=O)N[C@@H](CC(=O)O)C(=O)N[C@H](C(=O)N[C@@H](Cc1ccccc1)C(=O)N[C@H](C(N)=O)[C@@H](C)CC)[C@@H](C)CC)C(C)C)[C@@H](C)O` [Compound 62, TVFRSSEkR(Aib)SADIFI] (Palmitoyl-TVFRSSE[dK]R[Aib]SADIFI-NH2), for which, in series [1], the “Histimine (% vs. 48/40)” value was found to be 25%. Moreover, in series [2], the percent intrinsic activity at 0.3 µM came out at 51%.

On to `CCCCCCCCCCCCCCCC(=O)N[C@H](C(=O)N[C@H](C(=O)N[C@@H](Cc1ccccc1)C(=O)N[C@@H](CCCNC(=N)N)C(=O)N[C@@H](CO)C(=O)N[C@@H](CO)C(=O)N[C@@H](CCC(=O)O)C(=O)N[C@H](CCCCN)C(=O)N[C@@H](CCCNC(=N)N)C(=O)N[C@@H](CCCNC(=N)N)C(=O)N[C@@H](CO)C(=O)N[C@@H](C)C(=O)N[C@@H](CC(=O)O)C(=O)N[C@@H](CCC(N)=O)C(=O)N[C@@H](Cc1ccccc1)C(=O)N[C@H](C(N)=O)[C@@H](C)CC)C(C)C)[C@@H](C)O` [Compound 30] (Palmitoyl-TVFRSSE[dK]RRSADQFI-NH2; C-terminus assumed), for which the “Histimine (% vs. 48/40)” value in series [1] is listed as 63%. In series [2], the Ranking result was “*** (EC50<100 nM and % histamine>35%)”; the percent intrinsic activity at 0.3 µM came out at 98%. Further, in series [2] (setting [3]), the EC50 is 84.6 nM.

As for `CCCCCCCCCCCCCCCC(=O)N[C@H](C(=O)N[C@H](C(=O)N[C@@H](Cc1ccccc1)C(=O)N[C@@H](CCCNC(=N)N)C(=O)N[C@@H](CO)C(=O)N[C@@H](CO)C(=O)N1CCC[C@H]1C(=O)N[C@H](CCCCN)C(=O)N[C@@H](CCCNC(=N)N)C(=O)N[C@@H](CCCNC(=N)N)C(=O)N[C@@H](CO)C(=O)N[C@@H](C)C(=O)N[C@@H](CC(=O)O)C(=O)N[C@H](C(=O)N[C@@H](Cc1ccccc1)C(=O)N[C@H](C(N)=O)[C@@H](C)CC)[C@@H](C)CC)C(C)C)[C@@H](C)O` [Compound 47] (Palmitoyl-TVFRSSP[dK]RRSADIFI-NH2; C-terminus assumed), the “Histimine (% vs. 48/40)” value in series [1] stood at 60%. In series [2], the EC50 came to 13.3 nM; the Ranking result was “*** (EC50<100 nM and % histamine>35%)”; the percent intrinsic activity at 0.3 µM came out at 83%.

Turning to `CCCCCCCCCCCCCCCC(=O)N[C@H](C(=O)N[C@H](C(=O)N[C@@H](Cc1ccccc1)C(=O)N[C@@H](CCCNC(=N)N)C(=O)N[C@@H](CO)C(=O)N[C@@H](CO)C(=O)N[C@@H](CCC(=O)O)C(=O)N[C@H](CCCCN)C(=O)N[C@@H](CCCNC(=N)N)C(=O)N[C@@H](CCCNC(=N)N)C(=O)N[C@@H](CO)C(=O)N[C@@H](CCC(N)=O)C(=O)N[C@@H](CC(=O)O)C(=O)N[C@H](C(=O)N[C@@H](Cc1ccccc1)C(=O)N[C@H](C(N)=O)[C@@H](C)CC)[C@@H](C)CC)C(C)C)[C@@H](C)O` [Compound 28] (Palmitoyl-TVFRSSE[dK]RRSQDIFI-NH2), the “Histimine (% vs. 48/40)” value in series [1] is on record as 16%. Also, the percent intrinsic activity at 0.3 µM in series [2] is 8%.

As for `CCCCCCCCCCCCCCCC(=O)N[C@H](C(=O)N[C@H](C(=O)N[C@@H](Cc1ccccc1)C(=O)N1CCC[C@H]1C(=O)N[C@@H](CO)C(=O)N[C@@H](CO)C(=O)N[C@@H](CCC(=O)O)C(=O)N[C@H](CCCCN)C(=O)N[C@@H](CCCNC(=N)N)C(=O)N[C@@H](CCCNC(=N)N)C(=O)N[C@@H](CO)C(=O)N[C@@H](C)C(=O)N[C@@H](CC(=O)O)C(=O)N[C@H](C(=O)N[C@@H](Cc1ccccc1)C(=O)N[C@H](C(N)=O)[C@@H](C)CC)[C@@H](C)CC)C(C)C)[C@@H](C)O` [Compound 44] (Palmitoyl-TVFPSSE[dK]RRSADIFI-NH2; C-terminus assumed), the “Histimine (% vs. 48/40)” value in series [1] is on record as 7%. In series [2], the EC50 was found to be 111 nM; the Ranking result was “**** (EC50 101-500 nM and % histamine<35%)”; the percent intrinsic activity at 0.3 µM is 74%.

For the origin of these results see patent US20150011466A1, “APJ Receptor Compounds” (priority 2012, published 2015).
